Results taken from US10758513B2, “Modulators of mitochondrial protein import” (THE REGENTS OF THE UNIVERSITY OF CALIFORNIA, priority 2011, dated 2020).
In brackets after ≈: the same amount, converted by molar mass.

Columns and labels:
Erv1 [1] = biological target: T1, Erv1 (Saccharomyces cerevisiae, UniProt P27882); experiment: In vitro Erv1 oxidase activity, Amplex Red-HRP assay; format: biochemical, yeast
T1 construct: made in house
T1 sequence (P27882 1-189): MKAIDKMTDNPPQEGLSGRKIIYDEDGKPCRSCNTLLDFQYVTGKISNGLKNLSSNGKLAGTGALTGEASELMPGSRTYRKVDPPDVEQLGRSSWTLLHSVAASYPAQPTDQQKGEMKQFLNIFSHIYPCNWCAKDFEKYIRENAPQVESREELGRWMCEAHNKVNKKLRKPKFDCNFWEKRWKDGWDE
Description: The primary chemical screen used fresh recombinant Erv1 (in buffer 30 mM Hepes, pH 7.4, 100 mM NaCl, 1 mM EDTA) at a concentration of 10 μM, which was expressed as described previously. […] A Biomek FX (Beckman Coulter) was used to pin transfer 0.5 μl of compound from 1 mM stock or DMSO to respective wells. Approximate screening
concentration was 12.5 μM. After completed compound transfer, all plates were incubated at 25° C. in a humidified incubator for 1 hour. A Titertek multidrop was used to dispense 15 μl of Amplex Red-horseradish peroxidase (HRP) (Sigma) mix into all wells of the 384-well plate. The final concentration of Amplex Red and HRP were 46 μM and 0.092 U/ml, respectively. The Amplex Red-HRP solution was shielded from light during the entire experiment. The plates were incubated for an additional 10 min and then 15 μl of the substrate DTT (20 μM) was added to initiate the reduction of 02 to H2O2. […] Plates were then read at an endpoint using an excitation wavelength of 545 nm and an emission wavelength of 590 nm. […]
H2O2 production was measured using a standard fluorometric assay with Amplex Red and horseradish peroxidase (HRP). […] Fluorescence intensity was measured and reactions that were inhibited by more than 50% were picked as potential Erv1 inhibitors and selected for secondary analysis.

[2] = tested on: Δpdr5Δsnq2 strain overexpressing Erv1; experiment: Yeast growth inhibition (MIC50), Δpdr5Δsnq2 strain overexpressing Erv1; format: cell-based; conditions: Saccharomyces cerevisiae; Δpdr5Δsnq2 overexpressing Erv1 from high copy plasmid
Description: For MIC50 analysis in the yeast strains, serial dilution of MitoBloCK-6 (0.5 μl) was pinned into assay plate wells containing 50 μl of yeast (Table 2) in rich ethanol-glycerol media (starting OD600=0.0002). Plates were then incubated at 25° C. in a humidified chamber for 40 hours. Each plate was shaken in a Beckman orbital shaker to resuspend settled cells, and the OD600 in each well was read by a Wallac Victor plate reader (Perkin Elmer).

Erv1 [3] = biological target: T1, Erv1; experiment: Erv1-His pull-down of partner proteins from mitochondria; format: binding, yeast; conditions: 50 μM, 30 min
Description: (A) Mitochondria from a strain expressing C-terminal histidine-tagged Erv1 were incubated with 50 μM MitoBloCK-6 or 1% DMSO for 30 min at 25° C. followed by solubilization in 1% digitonin buffer. As a control, 100 μg of extract was withdrawn (T), and 500 μg lysate was incubated with Ni+^2-agarose beads. The beads were washed and bound proteins (B) were eluted with SDS-PAGE sample buffer. To test effectiveness of binding, 100 μg of the unbound protein fraction (S) was also included. Proteins were analyzed by immunoblotting with polyclonal antibodies against Mia40, Erv1, and cyt c. (B) Recombinant Erv1 was preincubated with MitoBloCK-6 or 1% DMSO for 1 hr at 25° C. and then Erv1 (1 μM) was incubated with reduced Tim13 (15 μM) and Mia40 (1 μM) in a time course assay (Tienson et al., 2009). Aliquots were removed at the indicated times and free thiols on Tim13 were modified with AMS addition. Oxidized and reduced Tim13 were detected by non-reducing SDS-PAGE and immunoblotting with antibodies against Tim13.
MitoBloCK-6 was preincubated with mitochondria isolated from the Erv1-His strain followed by solubilization in 1.0% digitonin and Erv1-His was purified with Ni′ agarose. In DMSO treated cells, a small fraction of the Mia40 and half of the cyt c co-purified with Erv1, as reported previously (Tienson et al., 2009). […]

HeLa cells = experiment: MTT cell viability assay in HeLa cells (MitoBloCK-6); format: cell-based; conditions: 100 μM
Description: Measurements for cell viability were made with a MTT based toxicology assay kit (Sigma) as described previously (Hasson et al., 2010). Briefly, HeLa cells were grown in 24-well tissue culture dishes to 80% confluency. Cells were then treated with DMSO or MitoBloCK-6 in complete medium for 12 h and reacted with MTT solution supplement for additional 4 hr as described in manufacturer's protocols. Percentage viability of each cell sample was calculated as: [(absorbance of vehicle treated cells)−(absorbance of MitoBloCK-6 treated cells)/(absorbance of vehicle treated cells)]×100.

tim23 mutant = experiment: Yeast growth inhibition (MIC50), tim23 mutant; format: cell-based; conditions: Saccharomyces cerevisiae; disrupted for prd5 and snq2
[4] = tested on: tim10-1 tim9S mitochondria; experiment: Membrane potential with rhodamine 123; format: biochemical, yeast; conditions: 25 μM MitoBloCK-1; CCCP as control
Description: Membrane potential measurement assays were conducted with a SPEX spectrofluorometer system (HORIBA Jobin Yvon) with a magnetically stirred cuvette held at 25° C. The quenching of rhodamine 123 fluorescence (Em, =530 nm and Ex=485 nm) was used as previously described (9) to detect changes in mitochondrial membrane potential. Purified tim10-1 tim9S mitochondrial aliquots were thawed and resuspended in respiration buffer (0.65 M mannitol, 0.3 mM EGTA, 3 mm tris-phosphate, 10 mM tris-maleate, pH 6.75). Trials were started by adding 100 nM of rhodamine 123 to respiration buffer. After a period of signal stabilization, mitochondria were added to a concentration of 100 μg/mL. Either drug or DMSO was then added to a final vehicle concentration of 1% following the establishment of baseline quenched fluorescence. Finally, mitochondria were uncoupled with 3 μM CCCP.

Row | Structure (SMILES) | IC50 (Erv1 [1]) [nM] | MIC50 [2] [µM] | binding of Mia40 to Erv1 decreased by (Erv1 [3]) [%] | binding of cyt c to Erv1 decreased by (Erv1 [3]) [%] | cell viability (MTT) (HeLa cells) | MIC50 (tim23 mutant) [µM] | rhodamine 123 fluorescence (membrane potential) [4]
1 | Oc1c(Cl)cc(Cl)cc1/C=N/c1ccc(Nc2ccccc2)cc1 [MitoBloCK-6] | 900 | 28.3 (≈ 10.1 µg/mL) | 75 | 95 | did not significantly reduce cell viability |  | 
2 | NC(=S)N/N=C/c1c(O)c(Br)cc2oc3c(c12)CCCC3 [MitoBloCK-1] |  |  |  |  |  | > 200 | did not change
